Patent US20030055244A1, “Pyridyl-containing spirocyclic compounds as inhibitors of fibrinogen-dependent platelet aggregation” (priority 1999, published 2003)
Read-outs that look alike come from different tables or passages of the source.

Tests used:
GPIIb-IIIa = molecular target: T1, GPIIb-IIIa (Homo sapiens, UniProt P05106+P08514); assay: ELISA IIb-IIIa assay (fibrinogen binding to immobilized purified GPIIb-IIIa); conditions: inhibition of fibrinogen binding to purified GPIIb-IIIa
T1 construct: Purified platelet GPIIb-IIIa receptor was prepared as described by Fitzgerald; from tissue; host or cells: platelets
Method: No. 1 - The ELISA IIb-IIIa Assay
PIIb-IIIa is coated onto microtiter plates. The coated support is then contacted with fibrinogen and with the test material (e.g., compounds of Formula I) and incubated for a sufficient time to permit maximal binding of fibrinogen to the immobilized GPIIb- Ila. Fibrinogen is typically provided at a concentration of about 5-50 nM and the test material can, if desired, be added at a series of dilution. Typical incubations are 2 to 4 hours at 25° C., the time and temperature being interdependent.
After incubation, the solution containing the fibrinogen and test material is removed and the level of binding of fibrinogen measured by quantitating bound fibrinogen to GPIIb-IIIa. Any suitable means of detection may be used, but it is convenient to employ labeled fibrinogen, for example using biotinylated labels. Such methods are well known in the art.
A. Description of Assays—Plate Assays
After purification, the receptors were stored in 0.1% Triton X-100 at 0.1-1.0 mg/ml.
The receptors were coated to the wells of 96-well flat-bottom ELISA plates (Linbro EIA-Plus microtiter plate, Flow Laboratories) after diluting 1:200 with a solution of 20 mM Tris-HCl, 150 mM NaCl, 1 mM CaCl2, pH 7.4, to reduce the Triton X-100 concentration to below its critical micellar concentration and adding an aliquot of 100 ul to each well. The wells were all allowed to incubate overnight at 4° C., and then aspirated to dryness. Additional sites were blocked by the addition of bovine serum albumin (BSA) at 35 mg/ml in the above buffer for two hours at 30° C. to prevent nonspecific binding. The wells were then washed once with binding buffer ([…] Tris-HCl, 100 mM NaCl 2 mM CaCl2, 1 mg/ml BSA).
The corresponding ligands (fibrinogen, von Willebrand Factor, or vitronectin) were conjugated to biotin using commercially available reagents and standard protocols. The labeled ligands were added to the receptor-coated wells at final concentration of 10 nM (100 ul/well) and incubated for 3 hours at 25° C. in the presence or absence of the test samples. After incubation, the wells are aspirated to dryness and bound ligand is quantitated.
Decreased color development is observed in wells incubated with test samples which inhibit binding of ligand to receptor.

[1] = tested on: human platelet-rich plasma; assay: Platelet aggregation assay (Aggregation-Human PRP/ADP); format: cell-based
Method: Platelet-rich plasma was prepared from healthy human volunteers for use in determining inhibition of platelet aggregation by the compounds.
Platelet-rich plasma was prepared at room temperature by centrifugation of the citrated whole blood at 100 × g for twelve minutes. The platelet rich plasma contained approximately 200-400,000 platelets/μl.
Platelet aggregation was assayed in a 4-channel platelet aggregation profiler (PAP-4, Biodata, Hatboro, Pa.) according to the manufacturers directions. Inhibition of platelet aggregation was studied by adding varying amounts of adenosine diphosphate (ADP) to stirred human platelet-rich plasma. Specifically, the human platelet-rich plasma was incubated with the compound being tested for 1 minute at 37° C. prior to the addition of a variety of aggregating agents most often ADP 5 μM to 20 μM, but also 1 μg/ml collagen, 1 μM U46619 and 0.3 μM platelet activating factor.

[2] = read-out: PRP (ADP-Citrate) IC50

T1 sequence (P08514 32-887 limits assumed): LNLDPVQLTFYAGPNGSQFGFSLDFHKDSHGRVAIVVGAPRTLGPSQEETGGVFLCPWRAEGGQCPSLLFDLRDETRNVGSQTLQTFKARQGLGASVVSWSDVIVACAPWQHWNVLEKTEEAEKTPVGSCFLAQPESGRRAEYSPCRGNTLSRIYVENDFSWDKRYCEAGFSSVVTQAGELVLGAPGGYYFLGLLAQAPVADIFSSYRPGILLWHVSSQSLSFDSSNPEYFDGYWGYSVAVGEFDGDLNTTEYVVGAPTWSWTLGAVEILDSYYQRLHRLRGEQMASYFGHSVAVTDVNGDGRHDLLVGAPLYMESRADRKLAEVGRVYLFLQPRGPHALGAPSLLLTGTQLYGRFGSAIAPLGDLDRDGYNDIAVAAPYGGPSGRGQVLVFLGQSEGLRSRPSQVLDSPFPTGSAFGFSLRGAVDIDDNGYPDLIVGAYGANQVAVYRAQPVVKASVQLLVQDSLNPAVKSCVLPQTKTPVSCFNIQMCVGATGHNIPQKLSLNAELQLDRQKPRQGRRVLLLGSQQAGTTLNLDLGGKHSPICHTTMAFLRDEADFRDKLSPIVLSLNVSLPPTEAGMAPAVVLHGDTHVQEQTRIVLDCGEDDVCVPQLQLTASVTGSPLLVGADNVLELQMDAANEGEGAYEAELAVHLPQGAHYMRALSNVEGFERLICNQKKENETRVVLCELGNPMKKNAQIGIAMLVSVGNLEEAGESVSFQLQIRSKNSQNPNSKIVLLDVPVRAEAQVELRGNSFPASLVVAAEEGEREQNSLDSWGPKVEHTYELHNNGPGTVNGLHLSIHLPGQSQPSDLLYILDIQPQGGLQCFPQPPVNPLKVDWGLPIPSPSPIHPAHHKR
T1 sequence (P08514 891-1039 limits assumed): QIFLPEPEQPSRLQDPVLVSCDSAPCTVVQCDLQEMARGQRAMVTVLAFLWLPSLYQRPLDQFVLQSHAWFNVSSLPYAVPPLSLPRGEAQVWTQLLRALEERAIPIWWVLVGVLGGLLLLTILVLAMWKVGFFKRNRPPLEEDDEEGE
T1 sequence (P05106 27-788): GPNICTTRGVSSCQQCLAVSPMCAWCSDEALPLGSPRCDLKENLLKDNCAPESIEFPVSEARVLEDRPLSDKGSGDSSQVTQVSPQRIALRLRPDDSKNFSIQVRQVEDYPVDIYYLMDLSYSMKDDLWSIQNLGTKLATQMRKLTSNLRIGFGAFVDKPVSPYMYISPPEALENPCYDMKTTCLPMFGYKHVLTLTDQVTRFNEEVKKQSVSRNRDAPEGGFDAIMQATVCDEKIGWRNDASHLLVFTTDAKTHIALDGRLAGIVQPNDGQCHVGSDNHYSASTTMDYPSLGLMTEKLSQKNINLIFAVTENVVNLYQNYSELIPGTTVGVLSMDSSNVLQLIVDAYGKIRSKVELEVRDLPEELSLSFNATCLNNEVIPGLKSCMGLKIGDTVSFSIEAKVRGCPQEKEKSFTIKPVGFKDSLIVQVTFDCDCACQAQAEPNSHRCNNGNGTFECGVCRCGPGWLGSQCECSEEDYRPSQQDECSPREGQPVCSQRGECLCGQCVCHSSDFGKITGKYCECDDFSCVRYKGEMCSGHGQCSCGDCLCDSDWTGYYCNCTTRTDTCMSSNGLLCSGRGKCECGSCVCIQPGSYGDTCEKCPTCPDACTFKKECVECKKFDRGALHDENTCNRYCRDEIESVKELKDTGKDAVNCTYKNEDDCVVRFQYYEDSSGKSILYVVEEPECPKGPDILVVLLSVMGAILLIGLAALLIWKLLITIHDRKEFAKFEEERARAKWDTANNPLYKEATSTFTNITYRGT

SMILES | IC50 (GPIIb-IIIa) [µM] | IC50 ([1]; read-out: PRP IC50) [µM] | IC50 [1, 2] [µM] | IC50 ([1]; read-out: PRP (ADP) IC50) [µM]
O=C(O)CC(=O)N1CCC(C(=O)N2CCC3(CC2)CCN(c2ccncc2)CC3)CC1 [Example 12, 3-oxo-3-(4-{[9-(4-pyridyl)-3,9-diazaspiro[5.5]undec-3-yl]carbonyl}piperidino)propanoic acid] | 0.039 | 1.77 |  | 
Cc1ccc(S(=O)(=O)N[C@@H](CCC(=O)N2CCC3(CC2)CCN(c2ccncc2)CC3)C(=O)O)cc1 [Example 7, 2(S)-2-{[(4-methylphenyl)sulfonyl]amino}-5-oxo-5-[9-(4-pyridyl)-3,9-diazaspiro [5.5]undec-3-yl]pentanoic acid] |  | 0.077 |  | 
O=C(O)CCN1CCN(C(=O)N2CCC3(CCN(c4ccncc4)CC3)C2)CC1=O [Example 25, 3-(2-oxo-4-((8-(4-pyridyl)-2,8-diazaspiro[4.5]dec-2-yl)carbonyl)piperazino)propanoic acid] |  |  | 8.3 | 
O=C(O)COc1ccc(C(=O)N2CCC3(CC2)CCN(c2ccncc2)C3)cc1 [Example 52, 2-(4-{[2-(4-pyridyl)-2,8-diazaspiro[4.5]dec-8-yl]carbonyl}phenoxy) acetic acid] |  |  | 11.3 | 
CCCCOC(=O)N[C@@H](CCC(=O)N1CCC2(CC1)CCN(c1ccncc1)C2)C(=O)O [Example 35, (2S)-2-[(butoxycarbonyl)amino]-5-oxo-5-[2-(4-pyridyl)-2,8-diazaspiro [4.5]dec-8-yl]pentanoic acid] |  |  | 4 | 
O=C(O)CN1CCN(C(=O)N2CCC3(CC2)CCN(c2ccncc2)C3)CC1=O [Example 29, 2-(2-oxo-4-((2-(4-pyridyl)-2,8-diazaspiro[4.5]dec-8-yl)carbonyl)piperazino)acetic acid] | 0.122 |  | 2.65 | 
O=C(O)CC(=O)N1CCC(C(=O)N2CCC3(CCN(c4ccncc4)CC3)C2)CC1 [Example 19, 3-oxo-3-(4-{[8-(4-pyridyl)-2,8-diazaspiro[4.5]dec-2-yl]carbonyl}piperidino)propanoic acid] | 0.028 |  | 1.6 | 
CN(CC(=O)O)C1CCN(C(=O)N2CCC3(CC2)CCN(c2ccncc2)C3)CC1 [Example 46, 2-[methyl(1-{[2-(4-pyridyl)-2,8-diazaspiro[4.5]dec-8-yl]carbonyl}-4-piperidyl)amino]acetic acid] |  | 10 |  | 
O=C(O)COC1CCN(CC(=O)N2CCC3(CC2)CCN(c2ccncc2)C3)CC1 [Example 50, 2-[(1-{2-oxo-2-[2-(4-pyridyl)-2,8-diazaspiro[4.5]dec-8-yl]ethyl}-4-piperidyl)oxyl]acetic acid] |  | 80 |  | 
O=C(O)CN1CCC(CC(=O)N2CCC3(CC2)CCN(c2ccncc2)C3)CC1 [Example 33, 2-(4-{2-oxo-2-[2-(4-pyridyl)-2,8-diazaspiro[4.5]dec-8-yl]ethyl}piperidino)acetic acid] |  |  | 80 | 
O=C(O)CCN1CCN(C(=O)N2CCC3(CC2)CCN(c2ccncc2)C3)CC1=O [Example 30, 3-(2-oxo-4-((2-(4-pyridyl)-2,8-diazaspiro[4.5]dec-8-yl)carbonyl)piperazino)propanoic acid] |  |  | 1.29 | 
O=C(O)CCCCC(=O)N1CCC2(CC1)CCN(c1ccncc1)CC2 [Example 2, 6-oxo-6-(9-(4-pyridyl)-3,9-diazaspiro[5.5]undec-3-yl)hexanoic acid] | 0.258 | 4.5 |  | 
O=C(O)COC1CCN(C(=O)N2CCC3(CC2)CCN(c2ccncc2)CC3)CC1 [Example 11, 2-[(1 -{[9-(4-pyridyl)-3,9-diazaspiro[5.5]undec-3-yl]carbonyl}-4-piperidyl)oxy]acetic acid] | 0.129 | 2.65 |  | 
O=C(O)CCCCCCC(=O)N1CCC2(CC1)CCN(c1ccncc1)CC2 [Example 4, 8-oxo-8-(9-(4-pyridyl)-3,9-diazaspiro[5.5]undec-3-yl)octanoic acid] | 1.16 | 18 |  | 
O=C(O)CCCC(=O)N1CCC2(CC1)CCN(c1ccncc1)CC2 [Example 1, 5-oxo-5-(9-(4-pyridyl)-3,9-diazaspiro[5.5]undec-3-yl)pentanoic acid] | 0.238 | 5.1 |  | 
O=C(O)Cn1ccc2cc(C(=O)N3CCC4(CC3)CCN(c3ccncc3)C4)ccc21 [Example 53, 2-(5-{[2(4-pyridyl)-2,8-diazaspiro[4,5]dec-8-yl]carbonyl}-1H-1-indolyl) acetic acid] | 0.047 |  | 0.952 | 
O=C(O)CCNC(=O)N1CCC2(CC1)CCN(c1ccncc1)C2 [Example 55, 3-({[2-(4-pyridyl)-2,8-diazaspiro[4.5]dec-8-yl]carbonyl}amino)propanoic acid] | 28.9 |  | 34.6 | 
O=C(O)CC(=O)NC1CCN(C(=O)N2CCC3(CC2)CCN(c2ccncc2)C3)C1 (stereo not shown) [Example 47, 3-oxo-3-[(1-{[2-(4-pyridyl)-2,8-diazaspiro[4.5]dec-8-yl]carbonyl}-tetrahydro-1H-3-pyrrolyl)amino]propanoic acid] | 0.447 | 5.86 |  | 
O=C(N[C@@H](CCC(=O)N1CCC2(CC1)CCN(c1ccncc1)CC2)C(=O)O)OCc1ccccc1 [Example 5, 2(S)-2-{[(benzyloxy)carbonyl]amino}-5-oxo-5-[9-(4-pyridyl)-3,9-diazaspiro [5.5]undec-3-yl]pentanoic acid] | 0.007 | 4.6 |  | 
O=C(O)COCC1CCN(C(=O)N2CCC3(CC2)CCN(c2ccncc2)C3)CC1 [Example 45, 2-[(1-{[2-(4-pyridyl)-2,8-diazaspiro[4.5]dec-8-yl]carbonyl}-4-piperidyl)-methoxy]acetic acid] | 0.106 | 2.82 |  | 
Cc1noc(C)c1S(=O)(=O)N[C@@H](CCC(=O)N1CCC2(CC1)CCN(c1ccncc1)C2)C(=O)O [Example 34, (2S)-2-{[(3,5-dimethyl-4-isoxazolyl)sulfonyl]amino}-5-oxo-5-[2-(4-pyridyl)-2,8-diazaspiro [4.5]dec-8-yl]pentanoic acid] | 0.002 |  | 0.271 | 
O=C(O)COC1CCN(C(=O)N2CCC3(CC2)CCN(c2ccncc2)C3)CC1 [Example 44] | 0.138 | 3.79 |  | 
O=C(O)CCCCCC(=O)N1CCC2(CC1)CCN(c1ccncc1)CC2 [Example 3, 7-oxo-7-(9-(4-pyridyl)-3,9-diazaspiro[5.5]undec-3-yl)heptanoic acid] | 0.265 | 4.5 |  | 
O=C(O)CCCCC(=O)N1CCC2(CCN(c3ccncc3)CC2)C1 [Example 22, 6-oxo-6-(8-(4-pyridyl)-2,8-diazaspiro[4.5]dec-2-yl)hexanoic acid] |  |  | > 80 | 
O=C(O)CCN1CCC(C(=O)N2CCC3(CC2)CCN(c2ccncc2)C3)CC1 [Example 49, 3-(4-{[2-(4-pyridyl)-2,8-diazaspiro[4.5]dec-8-yl]carbonyl}piperidino) propanoic acid] | 0.017 | 1.01 |  | 
CCCCOC(=O)N[C@@H](CNC(=O)C1CCC2(CC1)CCN(c1ccncc1)CC2)C(=O)O [Example 16, (2S)-2-{[(butyloxyl)carbonyl]amino}-3-({[3-(4-pyridyl)-3-azaspiro[5.5]undec-9-yl]carbonyl}amino)propanoic acid] |  |  |  | 1.88
CC(CNC(=O)C1CCC2(CC1)CCN(c1ccncc1)CC2)CC(=O)O (stereo not shown) [Example 18, 3-methyl-4-({[3-(4-pyridyl)-3-azaspiro[5.5]undec-9-yl]carbonyl}amino) butanoic acid] |  |  |  | 3
CC(CC(=O)O)NC(=O)C1CCC2(CC1)CCN(c1ccncc1)CC2 (stereo not shown) [Example 17, 3-({[3-(4-pyridyl)-3-azaspiro[5.5]undec-9-yl]carbonyl}amino)butanoic acid] |  |  |  | 14.8
O=C(O)CN1CCC(N2CCC3(CCN(c4ccncc4)C3)CC2)CC1 [Example 32, 2-{4-(2-(4-pyridyl)-2,8-diazaspiro[4.5]dec-8-yl]piperidino}acetic acid] |  |  | 9.5 | 
CCCCS(=O)(=O)N[C@@H](CCC(=O)N1CCC2(CC1)CCN(c1ccncc1)CC2)C(=O)O [Example 6, 2(S)-2-[(butylsulfonyl)amino]-5-oxo-5-[9-(4-pyridyl)-3,9-diazaspiro [5.5]undec-3-yl]pentanoic acid] |  | 0.79 |  | 
